Laboratory results: patent US7393857B2, “Use of 5-HT3 receptor antagonists for treating musculoskeletal diseases” (Novasearch AG, priority 1999, dated 2008)

Legend:
Type in all cases: in vivo, human
[1] = test system: patients exhibiting rheumatoid arthritis and severe consequential synovial inflammation; experiment: Clinical trial: synovial inflammation/synovitis in rheumatoid arthritis, intraarticular tropisetron (Example 1); settings: 2 mg intraarticularly once
[2] = test system: patient with repeated exudation from the knee joint consequential to damage to the meniscus; experiment: Clinical case: repeated knee joint exudation after meniscus damage, intra-articular tropisetron (Example 2, first patient); settings: 2 mg intra-articularly
Procedure: Prior to the trial the patient received injections of glucocorticoid. The patient receives an injection of 2 mg of tropisetron administered intra-articularly.

[3] = test system: patient with damage to the meniscus and arthritic change leading to synovial irritation with knee joint effusion; experiment: Clinical case: synovial irritation with knee joint effusion, i.v. tropisetron (Example 2, second patient)
Procedure: […] 2 mg doses of tropisetron are administered i.v. over a period of 17 days with 15 injections, one each day with a 2 days pause in therapy.

[4] = test system: patients exhibiting implant/insertion tendopathy; experiment: Clinical trial: implant/insertion tendopathy, local injection of tropisetron (Example 3); settings: 2 mg injected once in the area of greatest pain
Procedure: The condition treated results in the case of the first patient from epicondylitis radialis, in the case of the second patient from insertion tendopathy in the area of insertion of the deltoid muscle and, in the case of the third patient from an enthesiopathy of the Malleolus lateralis. In all three cases, tropisetron is injected once at a dosage of 2 mg in the area of greatest pain, directly into the tissues. In all three cases severity of pain decreases within a period of 60 min. and virtually complete remittal is achieved within 24 hrs., indicating remission from disease remission.

[5] = test system: patients with epicondylitis or periarthropathia humeroscapularis; experiment: Enthesiopathy (insertion tendopathy) with infiltration, pain on VAS (Example 4a); settings: 7 days after local injection
Description: (§1) Pain is subsequently determined on a visual analogue scale (VAS) that goes from 0 mm (no pain) to 100 mm (strongest pain). • 4a) Enthesiopathy (Insertion Tendopathy) (with infiltration): • (i) patient; Diagnosis: epicondylitis. Rest pain before local injection of tropisetron 30 mm, 7 days later 0 mm. • (ii) patient, diagnosis: periarthropathia humeroscapularis. Rest pain before local injection of tropisetron 85 mm, 7 days after local injection 45 mm. • (iii) Patient, diagnosis: epicondylitis. Rest pain before local injection of tropisetron 35 mm, 7 days thereafter 0 mm. • 4b) Rheumatoid arthritis (intraarticular injection): • (i) patient.

[6] = test system: patient with Morbus Still; experiment: Left knee joint irritation (Morbus Still), intraarticular injection (Example 4c); settings: for knee joint circumference: before 44 cm; for pain under strain (VAS): before 70; for pain at rest in the VAS (0-100): before 98
Description: as §1
Patient, Morbus Still diagnosed 1.5 years ago. Despite basic treatment with 15 mg methotrexat per week and 20 mg prednisolone per day, the patient suffers from swelling and overheating of the left knee joint for the first time in February 1999. Pain at rest in the VAS 98 (0-100), pain under strain 70. Obvious articular effusion. Knee joint circumference 44 cm, straightening/bending 0°-10°, 115°. 24 hours after an intraarticular injection with 2 mg tropisetron pain at rest in the Visual Analog Scale (VAS) 0, pain under strain 70. […] 7 days later pain at rest in the VAS 0, pain under strain 57, straightening/bending 0°,0°,130°, knee joint circumference 40.5 cm. • 4e) Gonarthrosis: […]

[7] = test system: patient with activated gonarthritis with effusion; experiment: Gonarthrosis, intra-articular injection (Example 4e); settings: intra-articular 2 mg; for pain at rest on the visual analog scale for pain (0-100): before 43
Description: as §1
Patient has activated gonarthritis with effusion for 2 months. Only short-term pain reduction by means of non-steroidal antiphlogistics could be achieved. Following an intra-articular injection with 2 mg tropisetron, pain at rest after 24 hours on the visual analog scale for pain (0-100) sinks from 43 to 25, after 2 days to 13, after 7 days to 10 and in a follow-up check after 17 days to 4. The analog values for pain under strain are 75, 45, 10 and 10, respectively. The effusion is gone after 7 days, as is the overheating of the knee joint.

[8] = test system: patient with cervical syndrome; experiment: Spinal syndrome: cervical syndrome, i.v. administration (Examples 5 and 6(i)); settings: 2 mg i.v., before injection 68 mm
Description: as §1
Patient, diagnosis: cervical syndrome. Before injection of 2 mg tropisetron 68 mm rest pain, 24 hours later 35 mm, at day 7 18 mm.
Patient, diagnosis: cervical syndrome. Before i.v. injection of 2 mg tropisetron 68 mm rest pain, 24 hours later 35 mm, at day 7 18 mm. • (ii) Lumbalgia: […]

[9] = 24 hours after intraarticular injection of 2 mg
[10] = 7 days later, intraarticular 2 mg

CN1[C@@H]2CC[C@H]1C[C@@H](OC(=O)c1c[nH]c3ccccc13)C2 [tropisetron, Indol-3-yl-carboxylic acid-endo-8-methyl-8-aza-bicyclo[3,2,1]-oct-3-yl-ester]
symptoms ([1]; both patients examined over one week following treatment): free of symptoms
remission from pain ([1]; two patients (shoulder joint, knee joint), within a few hours): almost complete remission from pain
pain ([2]; after 45 min.): marked reduction of pain
effusion from the knee joint ([2]; after 5 hours): major reduction of effusion
symptoms ([2]; without further therapy, observation period of 5 days): free of symptoms
movement of the knee joint ([3]; 2 mg i.v. daily): clearly improved
time until exudation from the knee joint is completely inhibited ([3]; 2 mg i.v. daily, without any other medication): ≤ 8 days
symptoms ([3]; 2 mg i.v., 15 injections over 17 days, following continuation of injections): virtually free of symptoms
persistence of improvement in condition after completion of therapy ([3]; 2 mg i.v., 15 injections over 17 days, observation following completion of therapy): continues over a further 7 days observation
pain ([3]; 2 mg i.v., 24 hours after the first i.v. injection): significant improvement of pain
further improvements after injection [4]: increase of strength and of flexibility of the affected body part
period within which severity of pain decreases ([4]; all three patients): ≤ 60 min
time within which virtually complete remittal is achieved ([4]; all three patients): ≤ 24 h
rest pain (VAS) ([5]; patient (i), epicondylitis, before injection 30 mm): 0 mm
rest pain (VAS) ([5]; patient (ii), periarthropathia humeroscapularis, before injection 85 mm): 45 mm
rest pain (VAS) ([5]; patient (iii), epicondylitis, before injection 35 mm): 0 mm
joint swelling and effusion [6, 9]: significant reduction of joint swelling and effusion
knee joint circumference [6, 9]: 41 cm
pain under strain (VAS) [6, 9]: 70
pain at rest in the VAS (0-100) ([6]; 24 hours after intraarticular injection of 2 mg, on methotrexat and prednisolone): 0
knee joint circumference [6, 10]: 40.5 cm
pain under strain (VAS) [6, 10]: 57
pain at rest in the VAS (0-100) [6, 10]: 0
pain at rest on the visual analog scale for pain (0-100) ([7]; after 24 hours): 25
pain at rest on the visual analog scale for pain (0-100) ([7]; after 2 days): 13
effusion ([7]; after 7 days): gone
overheating of the knee joint ([7]; after 7 days): gone
pain at rest on the visual analog scale for pain (0-100) ([7]; after 7 days): 10
pain at rest on the visual analog scale for pain (0-100) ([7]; follow-up check after 17 days): 4
pain under strain, visual analog scale (0-100) ([7]; fourth of four printed values, time point unclear (7 or 17 days)): 10
pain under strain, visual analog scale (0-100) ([7]; second of four printed values, presumably after 24 hours, first value (before) 75): 45
pain under strain, visual analog scale (0-100) ([7]; third of four printed values, time point unclear (2 or 7 days)): 10
rest pain (VAS) ([8]; 24 hours later): 35 mm
rest pain (VAS) ([8]; at day 7): 18 mm
